The text below walks through data of US20100286164A1, “SUBSTITUTED ARYL ALKYLAMINO-OXY-ANALOGS AND USES THEREOF” (The Brigham and Women's Hospital, Inc, priority 2007, published 2010).

What is called inhibition is the share of the control response that was lost under treatment. Low values mean a response near the control, high ones a response far below the control.

What all share (format): biochemical
Assay [1] concerns the target T1, γ-secretase (C100FLAG APP-based substrate) (Homo sapiens, UniProt P49768).
T1 construct: made in house; host or cells: S-1 CHO cell line (Chinese hamster ovary)
As to the kind of experiment: In vitro γ-secretase assay, C-100 Flag (APP-based substrate) cleavage. The note with it: effect on C-100 Flag cleavage; compounds tested in vitro at 100 μM. The method, then: (§1) Purification of γ-Secretase and in Vitro γ-Secretase Assays—The following procedures can be used to isolate γ-secretase and measure its enzymatic activity. The multistep procedure for the high grade purification of human γ-secretase from the S-1 cells is performed as described previously (Fraering, P. C., et al. (2004) Biochemistry 43, 9774-9789). In vitro γ-secretase assays using the recombinant APP-based substrate C100FLAG and the recombinant Notch-based substrate N100FLAG are performed as reported previously (Esler, W. P., Kimberly, W. T., Ostaszewski, B. L., Ye, W., Diehl, T. S., Selkoe, D. J., and Wolfe, M. S. (2002) Proc. Natl. Acad. Sci. U.S.A. 99, 2720-2725, Kimberly, W. T., et al. (2003) Biochemistry 42, 137-144). Basically, the proteolytic reaction mixtures contain C100FLAG and N100FLAG substrate at a concentration of 1 μm, purified γ-secretase solubilized in 0.2% CHAPSO/HEPES, pH 7.5, at 10-fold dilution from stock (stock=the M2 anti-FLAG-eluted fraction in the purification protocol from S-1 cells (Fraering, P. C., et al. (2004) Biochemistry 43, 9774-9789)), 0.025% phosphatidylethanolamine (PE), and 0.10% phosphatidylcholine (PC). All the reactions are stopped by adding 0.5% SDS, and the samples are assayed for Aβ40 and Aβ42 by ELISA as described (Xia, W., Zhang, J., Ostaszewski, B. L., Kimberly, W. T., Seubert, P., Koo, E. H., Shen, J., and Selkoe, D. J. (1998) Biochemistry 37, 16465-16471). The capture antibodies are 2G3 (to Aβ residues 33-40) for the Aβ40 species and 21F12 (to Aβ residues 33-42) for the Aβ42 species.
(§2) Western Blotting and Antibodies—The following assay can be used to determine the extent to which the compounds of interest modulate the cleavage of APP and the Notch receptor. For Western analysis of PS1-NTF, PS1-CTF, Aph1α2-HA, FLAG-Pen-2, and NCT-GST, the samples are run on 4-20% Tris-glycine polyacrylamide gels, transferred to polyvinylidene difluoride, and can be probed with Ab14 (for PS1-NTF, 1:2000; a gift of S. Gandy), 13A11 (for PS1-CTF, 5 μg/ml; a gift of Elan Pharmaceuticals), 3F10 (for Aph1α2-HA, 50 ng/ml; Roche Applied Science), anti-FLAG M2 (for FLAG-Pen-2, 1:1000; Sigma), or αGST antibodies (for NCT-GST, 1:3000; Sigma). Samples from the γ-secretase activity assays (above) are run on 4-20% Tris-glycine gels and can be transferred to polyvinylidene difluoride membranes to detect AICD-FLAG with anti-FLAG M2 antibodies (1:1000, Sigma) and NICD-FLAG with Notch Ab1744 antibody (1:1000, Cell Signaling Technology), which is selective for the N terminus of NICD; the same samples are transferred to nitrocellulose membranes to detect Aβ with the anti-Aβ 6E10 antibody. Levels of AICD-FLAG and NICD-FLAG are estimated by densitometry using AlphaEase/Spot Denso (Alpha Innotech Corp.).
(§3) Naphthyl Amine Alcohol Analogs and Assay Data—Compounds listed in Table 2 may be assayed as described herein (e.g., in Examples 3 and 4) and the specificity may be evaluated by comparing the relative inhibitions of C-100 Flag and N-100 Flag cleavage. The potency of the inhibitor may be evaluated with an Aβ1-40 ELISA assay (e.g., using an Aβ40 ELISA kit available from Invitrogen, Carlsbad, Calif.). […] The following table indicates the properties of certain compounds of the invention that were assayed as described herein. (INH=Inhibits)

For assay [2], the target named is T2, γ-secretase (N100FLAG Notch-based substrate) (Homo sapiens, UniProt P49768).
T2 construct: made in house; host or cells: S-1 CHO cell line (Chinese hamster ovary)
As to the kind of experiment: In vitro γ-secretase assay, N-100 Flag (Notch-based substrate) cleavage. The note with it: effect on N-100 Flag cleavage; compounds tested in vitro at 100 μM. On the procedure: as §1, §2, §3

For assay [3], the target named is T3, γ-secretase (Aβ1-40 production) (Homo sapiens, UniProt P49768).
T3 construct: made in house; host or cells: S-1 CHO cell line (Chinese hamster ovary)
As to the kind of experiment: γ-Secretase assay, Aβ1-40 ELISA. The note with it: 100 μM. On the procedure:
as §1, §3
(In general: In an ELISA, binding on a coated surface is turned into a signal by an enzyme label.)

With `CC(C)N(CCC(O)c1ccc2ccccc2c1)Cc1ccccc1` (stereo not shown) [Example 1, 3-(benzyl(isopropyl)amino)-1-(naphthalen-2-yl)propan-1-ol], in assay [1], the “γ-Secretase Assay C-100 Flag” value was “Inhibits (Inh)”. Moreover, in assay [2], the “γ-Secretase Assay N-100 Flag” value is given as “Enhances (Enh)”. In addition, the inhibition at 100 µM in assay [3] is 16%.

Consider `OC(CCN1CCN(c2ccccc2)CC1)c1ccc2ccccc2c1` (stereo not shown) [Example 3], for which, in assay [2], the “γ-Secretase Assay N-100 Flag” value was “Enh”. Further, the inhibition at 100 µM in assay [3] stood at 0%.

Consider `OC(CCN1CCN(c2cccc(C(F)(F)F)c2)CC1)c1ccc2ccccc2c1` (stereo not shown) [Example 13], for which the “γ-Secretase Assay C-100 Flag” value in assay [1] is on record as “Enh”. For the same compound, in assay [2], the “γ-Secretase Assay N-100 Flag” value was “Enh”. The same compound had an inhibition at 100 µM in assay [3] of 38%.

Consider `OC(CCN1CCN(c2ccc(F)cc2)CC1)c1ccc2ccccc2c1` (stereo not shown) [Example 14, 3-(4-(4-fluorophenyl)piperazin-1-yl)-1-(naphthalen-2-yl)propan-1-ol], for which the “γ-Secretase Assay C-100 Flag” value in assay [1] is listed as “Inh”. In addition, the “γ-Secretase Assay N-100 Flag” value in assay [2] was “Enh”. Also, the inhibition at 100 µM in assay [3] is 61%.

`CC(C)N(CCC(O)c1ccc2ccccc2c1)Cc1ccc(Cl)c(Cl)c1` (stereo not shown) [Example 17]: the “γ-Secretase Assay C-100 Flag” value in assay [1] was “Inh”. Also, the “γ-Secretase Assay N-100 Flag” value in assay [2] is “Enh”. In addition, in assay [3], at 100 µM the inhibition was 60%.

With `CC(C)N(CCC(O)c1ccc2ccccc2c1)Cc1ccc(F)c(F)c1` (stereo not shown) [Example 18], the “γ-Secretase Assay C-100 Flag” value in assay [1] is listed as “Inh”. In assay [2], the “γ-Secretase Assay N-100 Flag” value is given as “Enh”. This compound had an inhibition at 100 µM in assay [3] of 64%.

With `CC(C)N(CCC(O)c1cccc2ccccc12)Cc1ccccc1` (stereo not shown) [Example 19], the “γ-Secretase Assay C-100 Flag” value in assay [1] was “Inh”. Besides, in assay [2], the “γ-Secretase Assay N-100 Flag” value was “Enh”. Testing at 100 µM in assay [3] gave an inhibition of 46%.

As for `CC(C)N(CCC(O)c1ccc2ccccc2c1)c1ccccc1` (stereo not shown) [Example 20], the “γ-Secretase Assay C-100 Flag” value in assay [1] is on record as “Inh”. The “γ-Secretase Assay N-100 Flag” value in assay [2] was “Inh”. In assay [3], this compound had an inhibition at 100 µM of 68%.

On to `CC(C)N(CCC(O)c1ccc2ccccc2c1)Cc1cc(F)cc(F)c1` (stereo not shown) [Example 31], for which, in assay [1], the “γ-Secretase Assay C-100 Flag” value is “Inh”. In addition, the “γ-Secretase Assay N-100 Flag” value in assay [2] is recorded as “Inh”. The compound further gave an inhibition at 100 µM in assay [3] of 54%.

Take `CCOc1ccc(NCCC(O)c2ccc3ccccc3c2)cc1` (stereo not shown) [Example 32]: in assay [1], the “γ-Secretase Assay C-100 Flag” value is given as “Inh”. The “γ-Secretase Assay N-100 Flag” value in assay [2] is “Inh”. In assay [3], at 100 µM the inhibition was 40%.

In the case of `OC(CCNc1ccc(F)c(Cl)c1)c1ccc2ccccc2c1` (stereo not shown) [Example 33], the “γ-Secretase Assay C-100 Flag” value in assay [1] is listed as “Inh”. Moreover, the “γ-Secretase Assay N-100 Flag” value in assay [2] is recorded as “Inh”. The compound further had an inhibition at 100 µM in assay [3] of 40%.

For the compound `CC(C)N(CCC(O)c1ccc(C(F)(F)F)cc1)Cc1ccccc1` (stereo not shown) [Example 41], the “γ-Secretase Assay N-100 Flag” value in assay [2] was “Enh”. This compound displayed an inhibition at 100 µM in assay [3] of 27%.

As for `CN(CCC(O)c1ccc2ccccc2c1)Cc1ccccc1` (stereo not shown) [Example 44], in assay [2], the “γ-Secretase Assay N-100 Flag” value is given as “Enh”. The “γ-Secretase Assay ELISA % Inhibition [100 μM] Aβ1-40” value in assay [3] stood at 56%.

`Cc1ccc(C(O)CCN(Cc2ccccc2)C(C)C)cc1F` (stereo not shown) [Example 54]: the “γ-Secretase Assay N-100 Flag” value in assay [2] is “Inh”. Besides, testing at 100 µM in assay [3] gave an inhibition of 29%.

Take `CC(C)N(CCC(O)c1cc(F)cc(Cl)c1)Cc1ccccc1` (stereo not shown) [Example 55]: the “γ-Secretase Assay N-100 Flag” value in assay [2] is on record as “Inh”. The inhibition at 100 µM in assay [3] was found to be 30%.

As for `Cc1cccc(C)c1C(O)CCN(Cc1ccccc1)C(C)C` (stereo not shown) [Example 56], the “γ-Secretase Assay N-100 Flag” value in assay [2] was “Inh”. Moreover, in assay [3], at 100 µM the inhibition was 20%.

Take `CC(C)N(CCC(O)c1cc(C(F)(F)F)cc(C(F)(F)F)c1)Cc1ccccc1` (stereo not shown) [Example 57]: the “γ-Secretase Assay N-100 Flag” value in assay [2] is recorded as “Inh”. Further, in assay [3], 100 µM produced 47% inhibition.

Turning to `CC(C)N(CC[C@@H](O)c1ccc2ccccc2c1)Cc1ccccc1` [Example 75], in assay [2], the “γ-Secretase Assay N-100 Flag” value was “Inh”. Further, in assay [3], the inhibition at 100 µM is 0%.

Turning to `OC(CN1CCN(c2ccccc2)CC1)c1ccc2ccccc2c1` (stereo not shown) [Example 81], in assay [2], the “γ-Secretase Assay N-100 Flag” value is on record as “Enh”. Moreover, in assay [3], at 100 µM the inhibition was 0%.

For the compound `CC(C)N(Cc1ccccc1)CC(O)c1ccc2ccccc2c1` (stereo not shown) [Example 82], the “γ-Secretase Assay C-100 Flag” value in assay [1] was “Inh”. Besides, the “γ-Secretase Assay N-100 Flag” value in assay [2] was “Inh”. The inhibition at 100 µM in assay [3] was determined as 0%.

For `O=[N+]([O-])c1cc(NCCC(O)c2ccc3ccccc3c2)ccc1Cl` (stereo not shown) [Example 83], in assay [1], the “γ-Secretase Assay C-100 Flag” value is recorded as “Inh”. Also, in assay [2], the “γ-Secretase Assay N-100 Flag” value is “Inh”. For the same compound, the inhibition at 100 µM in assay [3] is 46%.

Turning to `COC(CCN(Cc1ccccc1)C(C)C)c1ccc2ccccc2c1` (stereo not shown) [Example 84], in assay [1], the “γ-Secretase Assay C-100 Flag” value is “Inh”. Moreover, the inhibition at 100 µM in assay [3] was determined as 51%.

For `CC(CN(Cc1ccccc1)C(C)C)C(O)c1ccc2ccccc2c1` (stereo not shown) [Example 88], in assay [1], the “γ-Secretase Assay C-100 Flag” value is recorded as “Inh”. The “γ-Secretase Assay ELISA % Inhibition [100 μM] Aβ1-40” value in assay [3] is reported as 66%.
